This is an account of results in patent US7807704B2, “Bicyclic, nitrogen-containing compounds modulating CXCR4 and/or CCXCKR2” (Chemocentryx, Inc., priority 2006, dated 2010).

Bounds are passed on as bounds.

One test deals with T1, CXCR4 (Homo sapiens, UniProt P61073).
T1 construct: all endogenously expressing CXCR4; endogenous in cells; host or cells: CEM-Nkr, CCRF-CEM, Jurkat, Molt-4; IL-2 stimulated human lymphocytes
T1 sequence (P61073 whole entry): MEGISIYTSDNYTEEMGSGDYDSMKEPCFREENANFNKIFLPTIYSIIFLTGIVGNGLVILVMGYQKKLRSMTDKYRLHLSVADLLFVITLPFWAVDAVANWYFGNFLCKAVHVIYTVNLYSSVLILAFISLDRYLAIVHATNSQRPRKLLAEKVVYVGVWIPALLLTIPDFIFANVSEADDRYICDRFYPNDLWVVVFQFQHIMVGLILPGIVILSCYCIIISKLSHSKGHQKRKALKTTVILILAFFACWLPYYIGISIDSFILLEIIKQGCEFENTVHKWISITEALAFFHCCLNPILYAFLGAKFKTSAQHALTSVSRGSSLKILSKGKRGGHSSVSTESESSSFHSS
Description: chemotaxis assay or 125I SDF-1α binding assay for CXCR4. The settings on record: first or only activity listed, read-out: CXCR4 activity (IC50 class). The protocol: CEM-Nkr, CCRF-CEM (ATCC #CCL-119), Jurkat (ATCC #TIB-152), Molt-4 (ATCC# CRL-1582), cell lines, all endogenously expressing CXCR4, were used in compound screening and subsequent assays. These cell lines were cultured as a suspension in RPMI-1640 medium supplemented with 2 mM L-glutamine, 1.5 g/L sodium bicarbonate, 4.5 g/L glucose, 10 mM HEPES, 1 mM sodium pyruvate, and 10% FBS. Cells were grown under 5% CO2/95% air, 100% humidity at 37° C. and subcultured twice weekly at 1:6 (cells were cultured at a density range of 1×10^5 to 2×10^6 cells/mL) and harvested at 1×10^6 cells/mL. • b) Isolated Human IL-2 Stimulated Lymphocytes
Cells were centrifuged and resuspended in assay buffer (20 mM HEPES pH 7.1, 140 mM NaCl, 1 mM CaCl2, 5 mM MgCl2, and with 0.2% bovine serum albumin) to a concentration of 4×10^6 cells/mL for cell lines. Binding assays were set up as follows. […] Then 0.1 mL of ^125I labeled SDF-1α (obtained from Perkin Elmer Life Sciences, Boston, Mass.) diluted in assay buffer to a final concentration of ˜50 pM, yielding ˜30,000 cpm per well, was added, the plates sealed and incubated for approximately 3 hours at 4° C. on a shaker platform. Reactions were aspirated onto GF/B glass filters pre-soaked in 0.3% polyethyleneimine (PEI) solution, on a vacuum cell harvester (Packard Instruments; Meriden, Conn.). Scintillation fluid (40 μl; Microscint 20, Packard Instruments) was added to each well, the plates were sealed and radioactivity measured in a Topcount scintillation counter (Packard Instruments). Control wells containing either diluent only (for total counts) or excess SDF1 a (1 μg/mL, for non-specific binding) were used to calculate the percent of total inhibition for compound. The computer program Prism from GraphPad, Inc. (San Diego, Calif.) was used to calculate IC50 values. IC50 values are those concentrations required to reduce the binding of radiolabeled SDF-1α to the receptor by 50%. (For further descriptions of ligand binding and other functional assays, see Dairaghi, et al., J. Biol. Chem. 274:21569-21574 (1999), Penfold, et al., Proc. Natl. Acad. Sci. USA. 96:9839-9844 (1999), and Dairaghi, et al., J. Biol. Chem. 272:28206-28209 (1997)).
Chemotaxis assays were performed using 5 μm pore polycarbonate, polyvinylpyrrolidone-coated filters in 96-well chemotaxis chambers (Neuroprobe; Gaithersburg, Md.) using chemotaxis buffer (Hank's balanced salt solution (HBSS) and 1% FBS). CXCR4 ligand (i.e., SDF1a, R&D Systems; Minneapolis, Minn.) are use to evaluate compound mediated inhibition of CXCR4 mediated migration. Other chemokines (i.e., TECK; R&D Systems; Minneapolis, Minn.) are used as specificity controls. The lower chamber was loaded with 29 μl of chemokine (i.e., 0.1 nM SDF1a); the top chamber contained 50,000 Jurkat cells or IL-2 lymphocytes in 20 μl. The chambers were incubated 2 hours at 37° C., and the number of cells in the lower chamber quantified either by direct cell counts in five high powered fields per well or by the CyQuant assay (Molecular Probes), a fluorescent dye method that measures nucleic acid content and microscopic observation.
To evaluate small organic molecules that prevent the CXCR4 from binding ligand, an assay was employed that detected radioactive ligand (i.e, SDF-1) binding to cells expressing CXCR4 on the cell surface (for example, CEM-Nkr cells). For compounds that inhibited binding, whether competitive or not, fewer radioactive counts are observed when compared to uninhibited controls.
Equal numbers of cells were added to each well in the plate. The cells were then incubated with radiolabeled […]. Unbound ligand was removed by washing the cells, and bound ligand was determined by quantifying radioactive counts. Cells that were incubated without any organic compound gave total counts; non-specific binding was determined by incubating the cells with unlabeled ligand and labeled ligand. Percent inhibition was determined by the equation: […]
Turning to `CN(CCNC(=O)Cn1ccc2ccc(-c3ccc(F)cc3)cc21)C1CCCCC1` [No 23], the IC50 is less than 1000 nM.
On the same count and under the same terms, the value for `Cc1ccc(-c2ccc3ccn(CC(=O)NCCN(C)C4CCCCC4)c3c2)cc1` [No 24] was less than 1000 nM; that for `COc1ccc(-c2ccc3ccn(CC(=O)NCCN(C)C4CCCCC4)c3c2)cc1` [No 26] was less than 1000 nM.
Regarding `CN(CCNC(=O)Cn1ccc2ccc(-c3ccc(Cl)c(Cl)c3)cc21)C1CCCCC1` [No 27], the IC50 is less than 1000 nM.
On the same count and under the same terms, as for `CN(CCNC(=O)Cn1ccc2ccc(-c3cccc(C#N)c3)cc21)C1CCCCC1` [No 28], the figure is 1000 to 10000 nM.
On the same count and under the same terms, as for `CCCCc1ccc(-c2ccc3ccn(CC(=O)NCCN(C)C4CCCCC4)c3c2)cc1` [No 31], the figure is less than 1000 nM.
In the case of `Cc1cc(C)cc(-c2ccc3ccn(CC(=O)NCCN(C)C4CCCCC4)c3c2)c1` [No 32], the IC50 is less than 1000 nM.
Same read-out and setting: as for `Cc1cc(-c2ccc3ccn(CC(=O)NCCN(C)C4CCCCC4)c3c2)ccc1F` [No 33], the figure is less than 1000 nM.
The same measure, in the same setting: as for `CN(CCNC(=O)Cn1ccc2ccc(-c3ccc4c(ccn4C)c3)cc21)C1CCCCC1` [No 35], the figure is less than 1000 nM; as for `Cc1ccc(-c2ccc3ccn(CC(=O)NCCN(C)C4CCCCC4)c3c2)cc1C` [No 46], less than 1000 nM; as for `Cc1ccc(-c2ccc3ccn(CC(=O)NCCN(C)C4CCCCC4)c3c2)c(F)c1` [No 47], less than 1000 nM.
Same read-out and setting: the value for `Cc1ccc(-c2ccc3ccn(CC(=O)NCCN(C)C4CCCCC4)c3c2)cc1F` [No 48] was less than 1000 nM.
As for `Cc1ccc(-c2ccc3cnn(CC(=O)NCCN(C)C4CCCCC4)c3c2)cc1` [No 49], the IC50 is less than 1000 nM.
Same read-out and setting: as for `CN(CCNC(=O)Cn1ccc2ccc(-c3ccc(C(N)=O)cc3)cc21)C1CCCCC1` [No 50], the figure is less than 1000 nM.
Regarding `Cc1ccc(-c2ccc3ccn(CC(=O)NCCN(C)C4CCCC4)c3c2)cc1` [No 51], the half-maximal inhibitory concentration (IC50) was less than 1000 nM.
On the same count and under the same terms, the value for `Cc1ccc(-c2ccc3ccn(CC(=O)NCCN4CCCC4)c3c2)cc1` [No 52] was less than 1000 nM; that for `Cc1ccc(-c2ccc3ccn(CC(=O)NCCN4CCCCC4C)c3c2)cc1` (stereo not shown) [No 53] was less than 1000 nM.
Still for that read-out and setting: as for `Cc1ccc(-c2ccc3ccn(CC(=O)NCCN4CCCCCC4)c3c2)cc1` [No 54], the figure is less than 1000 nM; as for `CCN(CCNC(=O)Cn1ccc2ccc(-c3ccc(C)cc3)cc21)C1CCCCC1` [No 55], less than 1000 nM.
As to `Cc1ccc(-c2ccc3ccn(CC(=O)NCCN4CCC(C)CC4)c3c2)cc1` [No 56], the IC50 is less than 1000 nM.
Take `CN(CCNC(=O)Cn1ccc2ccc(-c3ccc(C#N)cc3)cc21)C1CCCCC1` [No 57]: the IC50 is less than 1000 nM.
As to `COC(=O)c1cc2ccc(-c3ccc(C)cc3)cc2n1CC(=O)NCCN(C)C1CCCCC1` [No 58], the IC50 is less than 1000 nM.
Turning to `Cc1ccc(-c2ccc3ccn(CC(=O)NC(C)CN4CCCC4)c3c2)cc1` (stereo not shown) [No 59], the IC50 was less than 1000 nM.
Still for that read-out and setting: the value for `Cc1ccc(-c2ccc3ncn(CC(=O)NCCN(C)C4CCCCC4)c3c2)cc1` [No 60] was less than 1000 nM; that for `Cc1ccc(-c2ccc3ccn(CC(=O)NCC(C)N4CCCC4)c3c2)cc1` (stereo not shown) [No 61] was less than 1000 nM.
Turning to `CN(C)c1ccc(-c2ccc3ccn(CC(=O)NCCN(C)C4CCCCC4)c3c2)cc1` [No 62], the IC50 is less than 1000 nM.
Same read-out and setting: as for `Cc1ccc(-c2ccc3ccn(CC(=O)NCCN4CCCC(C)(C)C4)c3c2)cc1` [No 63], the figure is less than 1000 nM.
As for `Cc1ccc(-c2ccc3ccn(CC(=O)NCCN4CC(C)CC(C)C4)c3c2)cc1` (stereo not shown) [No 64], the concentration for half-maximal inhibition (IC50) was less than 1000 nM.

Another test deals with T2, CCXCKR2 (CXCR7) (Homo sapiens, UniProt P25106).
T2 construct: expressed in transfected cells; host or cells: MDA-MB-435S transfected with pcDNA3.1(+)-hRDC1, and/or MCF-7 (endogenous receptor)
T2 sequence (P25106 whole entry): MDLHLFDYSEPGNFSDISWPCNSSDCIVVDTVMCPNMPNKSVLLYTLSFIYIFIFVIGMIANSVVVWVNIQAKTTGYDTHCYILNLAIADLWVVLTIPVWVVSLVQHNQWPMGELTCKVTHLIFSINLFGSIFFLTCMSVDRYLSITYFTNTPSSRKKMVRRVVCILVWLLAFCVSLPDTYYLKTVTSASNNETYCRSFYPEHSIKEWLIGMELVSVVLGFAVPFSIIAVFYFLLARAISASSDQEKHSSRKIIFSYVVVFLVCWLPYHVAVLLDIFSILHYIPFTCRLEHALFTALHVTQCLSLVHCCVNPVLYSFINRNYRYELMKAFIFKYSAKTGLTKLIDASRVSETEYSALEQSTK
Description: displacement of 125I SDF-1 from CCXCKR2 (CXCR7) on MCF-7 and/or MDA-MB-435S cells. In kind it is binding. The settings on record: second activity listed in the cell; read-out: CXCR7 activity (IC50 class). The protocol:
The ability of the compounds to displace the labeled chemokine from the CCXCKR2 receptor sites at multiple concentrations was then determined with the screening process.
Reagents and Cells. ^125I-labeled SDF-1 was purchased from Perkin-Elmer Life Sciences, Inc. (Boston, Mass.). The MCF-7 (adenocarcinoma; mammary gland) cell line was obtained from the American Type Culture Collection (Manassas, Va.) or and was cultured in DMEM (Mediatech, Herndon, Va.) supplemented with 10% fetal bovine serum (FBS) (HyClone Logan, Utah) and bovine insulin (0.01 mg/mL) (Sigma, St. Louis, Mo.) at 37° C. in a humidified incubator at a 5% CO2/air mixture. CCXCKR2 transfected MDA-MB-435S were produced as described below. MDA-MB-435S human breast cancer line, was purchased from ATCC, and cultured in DMEM/10% FBS medium. The complete coding sequence of the gene encoding CCXCKR2 (a.k.a. CXCR7, hRDC1), was isolated from MCF-7 cells using μMACs mRNA isolation kit (Miltenyi Biotec, Auburn, Calif.). DNA contamination was removed by DNase digestion via RNeasy columns (Qiagen, Inc., Valencia, Calif.) and cDNA was generated using GeneAmp RNA PCR Core Kit (Applied Biosystems, Foster City, Calif.). PCR of cDNA samples was performed using Taq PCR Master Mix kit (Qiagen, Inc.) and hRDC1 primers harboring 5′ and 3′ NotI sites (hRDC1F 5′ […]-3′ (SEQ ID NO:11, hRDC1R 5′-[…]-3′) Not I digested PCR product was ligated into Not I digested pcDNA3.1 (+)(Invitrogen, Carlsbad, Calif.) and screened for orientation and sequence confirmed. Plasmid DNA was then isolated from overnight bacterial cultures by Maxiprep (Qiagen, Inc.). Plasmid DNA (10 μg) was added to MDA-MB-435s cells and cells were electroporated (0.22 kV, 960 uF) via Gene Pulser (Biorad laboratories, Hercules, Calif.). 48 hr post-electroporation, cells were transferred to selection medium (1000 ug/ml G418).
Binding Analysis. Target compounds were tested to determine their ability to bind with CCXCKR2 sites on MCF-7 and/or MDA-MB-435S cells. Efficiency-maximized radioligand binding using filtration protocols as described in Dairaghi D J, et al., HHV8-encoded vMIP-I selectively engages chemokine receptor CCR5. Agonist and antagonist profiles of viral chemokines., J. Biol. Chem. 1999 Jul. 30; 274(31): 21569-74 and Gosling J, et al., Cutting edge: identification of a novel chemokine receptor that binds dendritic cell-and T cell-active chemokines including ELC, SLC, and TECK., J. Immunol. 2000 Mar. 15; 164(6):2851-6 was used.
In these assays, MCF-7 and/or MDA-MB-435S cells were interrogated with the target compounds and the ability of these compounds to displace ^125I radiolabeled SDF-1 was assessed using the protocol described in Dairaghi and Gosling. The target compounds were added to the plate to the indicated concentration and were then incubated with cells followed by the addition of radiolabeled chemokine (^125I SDF-1) for 3 hr at 4° C. in the following binding medium (25 mM HEPES, 140 mM NaCl, 1 mM CaCl2, 5 mM MgCl2 and 0.2% bovine serum albumin, adjusted to pH 7.1). All assays were then incubated for 3 hrs at 4° C. with gentle agitation. Following incubation in all binding assays, reactions were aspirated onto PEI-treated GF/B glass filters (Packard) using a cell harvester (Packard) and washed twice (25 mM HEPES, 500 mM NaCl, 1 mM CaCl2, 5 mM MgCl2, adjusted to pH 7.1). Scintillant (MicroScint 10, Packard) was added to the wells, and the filters were counted in a Packard Topcount scintillation counter. Data were analyzed and plotted using Prism (GraphPad Prism version 3.0a for Macintosh, GraphPad Software, www.graphpad.com).
(In general: In a radioligand displacement assay an active substance lowers the binding of a labelled ligand.)
In the case of `CN(CCNC(=O)Cn1ccc2ccc(-c3ccc(F)cc3)cc21)C1CCCCC1` [No 23], the half-inhibitory concentration (IC50) is less than 1000 nM.
Still for that read-out and setting: as for `Cc1ccc(-c2ccc3ccn(CC(=O)NCCN(C)C4CCCCC4)c3c2)cc1` [No 24], the figure is 1000 to 10000 nM.
With `COc1ccc(-c2ccc3ccn(CC(=O)NCCN(C)C4CCCCC4)c3c2)cc1` [No 26], the IC50 fell in the range of 1000 to 10000 nM.
On to `CN(CCNC(=O)Cn1ccc2ccc(-c3ccc(Cl)c(Cl)c3)cc21)C1CCCCC1` [No 27], for which the 50% inhibitory concentration (IC50) is less than 1000 nM.
The same measure, in the same setting: the value for `CN(CCNC(=O)Cn1ccc2ccc(-c3cccc(C#N)c3)cc21)C1CCCCC1` [No 28] was 1000 to 10000 nM; that for `CCCCc1ccc(-c2ccc3ccn(CC(=O)NCCN(C)C4CCCCC4)c3c2)cc1` [No 31] was 1000 to 10000 nM.
`Cc1cc(C)cc(-c2ccc3ccn(CC(=O)NCCN(C)C4CCCCC4)c3c2)c1` [No 32]: the IC50 lay in the range of 1000 to 10000 nM.
On the same count and under the same terms, as for `Cc1cc(-c2ccc3ccn(CC(=O)NCCN(C)C4CCCCC4)c3c2)ccc1F` [No 33], the figure is less than 1000 nM; as for `CN(CCNC(=O)Cn1ccc2ccc(-c3ccc4c(ccn4C)c3)cc21)C1CCCCC1` [No 35], 1000 to 10000 nM.

By IC50 is commonly meant the concentration at which inhibition is half-maximal.
